Each structure is given as a SMILES string.

This assay concerns the target T1, Human recombinant purified glucocorticoid receptor (Homo sapiens, UniProt P04150).
T1 sequence (P04150 1-777): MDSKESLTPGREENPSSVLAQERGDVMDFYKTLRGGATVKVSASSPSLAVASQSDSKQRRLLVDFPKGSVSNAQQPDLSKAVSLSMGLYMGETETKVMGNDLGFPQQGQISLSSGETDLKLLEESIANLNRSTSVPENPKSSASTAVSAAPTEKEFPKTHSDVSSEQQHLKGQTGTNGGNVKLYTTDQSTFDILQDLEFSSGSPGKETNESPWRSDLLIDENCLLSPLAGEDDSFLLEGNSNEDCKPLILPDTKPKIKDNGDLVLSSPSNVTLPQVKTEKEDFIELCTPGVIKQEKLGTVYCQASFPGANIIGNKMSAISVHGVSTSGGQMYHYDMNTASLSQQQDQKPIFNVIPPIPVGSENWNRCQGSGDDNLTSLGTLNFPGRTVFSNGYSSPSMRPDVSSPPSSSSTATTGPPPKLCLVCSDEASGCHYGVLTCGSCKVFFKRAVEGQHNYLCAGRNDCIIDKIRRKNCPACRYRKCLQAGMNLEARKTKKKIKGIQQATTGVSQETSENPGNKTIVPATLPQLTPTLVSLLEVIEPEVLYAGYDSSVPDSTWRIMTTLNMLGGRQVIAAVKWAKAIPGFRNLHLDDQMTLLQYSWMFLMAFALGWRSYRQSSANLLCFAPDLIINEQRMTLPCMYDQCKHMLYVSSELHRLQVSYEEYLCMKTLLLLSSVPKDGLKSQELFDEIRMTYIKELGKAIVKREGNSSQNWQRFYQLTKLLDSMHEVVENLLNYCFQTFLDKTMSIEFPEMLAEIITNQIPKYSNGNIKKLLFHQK
Put plainly: Glucocorticoid receptor competitive binding assay (3H-dexamethasone). Particulars: competition with 2 nM 3H-dexamethasone; GR at 1 nM; 4° C. overnight; read-out: Binding Affinity Ki. The procedure: The affinity of glucocorticoid receptor antagonists for the glucocorticoid receptor was determined in competitive binding assays by the ability of the antagonist to compete with tritiated dexamethasone. All assay steps were performed on ice in 96-well plates. Binding buffer contained 10 mM potassium phosphate pH 7.4, 20 mM Na2Mo4, 100 μM EDTA, 2% DMSO, and 5 mM DTT. Human recombinant purified glucocorticoid receptor was used at 1 nM. Compounds tested had up to 2% DMSO final concentration. Non-specific binding condition was 1 μM dexamethasone. The radioligand used for the competition assay was 2 nM ^3H-dexamethasone (83 Ci/mmol stock solution). Buffer, compounds or vehicles, GR, and radioligand were incubated at 4° C. overnight. Unifilter GF/B 96-well filter plates were treated with 0.5% PEI after incubation. Samples were transferred to filter plates by a cell harvester.
Filter plates were washed five times with 50 mM Tris pH 7.5 and 5 mM EDTA wash buffer. Samples were dried at 65° C. for about 1 hr. Scintillation fluid was added to filter plates at 50 μL/well and ^3H cpm were measured on a TopCount scintillation counter.
As for `O=C(Nc1ccc(-c2ncco2)cc1)C(O)(CC1(c2ccccc2C(F)(F)F)CCC1)C(F)(F)F` (stereo not shown) [Example 1, 3,3,3-Trifluoro-2-hydroxy-N-(4-oxazol-2-yl-phenyl)-2-[1-(2-trifluoromethyl-phenyl)-cyclobutylmethyl]-propionamide], the Ki was determined as 161 nM.

In the case of `O=C(Nc1cccc(-c2cnco2)c1)C(O)(CC1(c2ccccc2C(F)(F)F)CCC1)C(F)(F)F` (stereo not shown) [Example 2, 3,3,3-Trifluoro-2-hydroxy-N-(3-oxazol-5-yl-phenyl)-2-[1-(2-trifluoromethyl-phenyl)-cyclobutylmethyl]-propionamide], the Ki was determined as 13.5 nM.

On to `CCOC(=O)C(O)c1ccc(NC(=O)C(O)(CC2(c3ccccc3C(F)(F)F)CCC2)C(F)(F)F)cc1` (stereo not shown) [Example 4, Hydroxy-(4-{3,3,3-trifluoro-2-hydroxy-2-[1-(2-trifluoromethyl-phenyl)-cyclobutylmethyl]-propionylamino}-phenyl)-acetic acid ethyl ester], for which the Ki was 555 nM.

Regarding `Cc1noc(-c2ccc(NC(=O)C(O)(CC3(c4ccccc4C(F)(F)F)CCC3)C(F)(F)F)cc2)n1` (stereo not shown) [Example 3, 3,3,3-Trifluoro-2-hydroxy-N-[4-(3-methyl-[1,2,4]oxadiazol-5-yl-)-phenyl]-2-[1-(2-trifluoromethyl-phenyl)-cyclobutylmethyl]-propionamide], the inhibition constant (Ki) worked out at 25.2 nM.

As usually defined, the Ki is the equilibrium dissociation constant of an inhibitor or competing ligand from its target.

Source of the values: US7868031B2, “Propionamide compounds as antiinflammatory agents” (Roche Palo Alto LLC, priority 2005, dated 2011).
